Patent US10588315B2, “Fungicidal compositions” (Syngenta Participations AG, priority 2012, dated 2020)
Where “and” joins values, the source holds several entries; their conditions need not be identical. Identical values can stand only once. Like-named read-outs stand apart in the source and are kept apart here.

System: Gaeumannomyces graminis
Test: Gaeumannomyces graminis / liquid culture
Format: cell-based
Settings: for inhibition at 0.2 ppm: 1.001 0.2000 ppm; for inhibition at 0.1 ppm: 1.001 0.1000 ppm
Experimental: Mycelia fragments or conidia suspensions of a fungus, prepared either freshly from liquid cultures of the fungus or from cryogenic storage, were directly mixed into nutrient broth. DMSO solutions of the test compound (max. 10 mg/ml) was diluted with 0.025% Tween20 by factor 50 and 10 μl of this solution was pipetted into a microtiter plate (96-well format). The nutrient broth containing the fungal spores/mycelia fragments was then added to give an end concentration of the tested compound. The test plates were incubated in the dark at 24° C. and 96% rh. The inhibition of fungal growth was determined photometrically and visually after 2-4 days, depending on the pathosystem, and percent antifungal activity relative to the untreated check was calculated.
Mycelial fragments of the fungus from cryogenic storage were directly mixed into nutrient broth (PDB potato dextrose broth). After placing a (DMSO) solution of test compound into a microtiter plate (96-well format), the nutrient broth containing the fungal spores was added.

[1] = Gaeumannomyces graminis, B4.1, read-out: observed % activity
[2] = Gaeumannomyces graminis, B5.1, read-out: observed % activity
[3] = Gaeumannomyces graminis, B9.1, read-out: observed % activity

## CON(C(=O)c1cn(C)nc1C(F)F)C(C)Cc1c(Cl)cc(Cl)cc1Cl (centres unmarked) [Compound 1.001, 3-(difluoromethyl)-N-methoxy-1-methyl-N-[1-methyl-2-(2,4,6-trichlorophenyl)ethyl]pyrazole-4-carboxamide]
1.001 0.0063 ppm
  observed % activity: 10%
1.001 0.0125 ppm
  observed % activity: 1%
1.001 0.0250 ppm
  observed % activity: 6%
1.001 0.0500 ppm
  observed % activity: 3% and 1% and 9%
Gaeumannomyces graminis, 1.001 0.0016 ppm, read-out: observed % activity
  inhibition at 0.0016 ppm: 0%
Gaeumannomyces graminis, B1.1, read-out: observed % activity
  inhibition at 0.2 ppm: 7%
Gaeumannomyces graminis, B2.1, 1.001 0.0125 ppm, read-out: observed % activity
  inhibition at 0.0125 ppm: 0%
Gaeumannomyces graminis, B2.1, 1.001 0.0250 ppm, read-out: observed % activity
  inhibition at 0.025 ppm: 4%
Gaeumannomyces graminis, B2.1, 1.001 0.0500 ppm, read-out: observed % activity
  inhibition at 0.05 ppm: 0%
Gaeumannomyces graminis, B2.1, read-out: observed % activity
  inhibition at 0.1 ppm: 0%
Gaeumannomyces graminis, B3.1, 1.001 0.0031 ppm, read-out: observed % activity
  inhibition at 0.0031 ppm: 0%
Gaeumannomyces graminis, B3.1, 1.001 0.0063 ppm, read-out: observed % activity
  inhibition at 0.0063 ppm: 0%
Gaeumannomyces graminis, B3.1, 1.001 0.0125 ppm, read-out: observed % activity
  inhibition at 0.0125 ppm: 8%
Gaeumannomyces graminis, B3.1, 1.001 0.0250 ppm, read-out: observed % activity
  inhibition at 0.025 ppm: 0%
Gaeumannomyces graminis, B3.1, 1.001 0.0500 ppm, read-out: observed % activity
  inhibition at 0.05 ppm: 0%
Gaeumannomyces graminis, B4.1, 1.001 0.0125 ppm, read-out: observed % activity
  inhibition at 0.0125 ppm: 0%
Gaeumannomyces graminis, B4.1, 1.001 0.0250 ppm, read-out: observed % activity
  inhibition at 0.025 ppm: 0%
Gaeumannomyces graminis, B4.1, 1.001 0.0500 ppm, read-out: observed % activity
  inhibition at 0.05 ppm: 0%
[1]
  inhibition at 0.1 ppm: 0%
  inhibition at 0.2 ppm: 12%
Gaeumannomyces graminis, B5.1, 1.001 0.0250 ppm, read-out: observed % activity
  inhibition at 0.025 ppm: 0%
Gaeumannomyces graminis, B5.1, 1.001 0.0500 ppm, read-out: observed % activity
  inhibition at 0.05 ppm: 2%
[2]
  inhibition at 0.1 ppm: 0%
  inhibition at 0.2 ppm: 0%
Gaeumannomyces graminis, B6.1, 1.001 0.0063 ppm, read-out: observed % activity
  inhibition at 0.0063 ppm: 0%
Gaeumannomyces graminis, B6.1, 1.001 0.0250 ppm, read-out: observed % activity
  inhibition at 0.025 ppm: 0%
Gaeumannomyces graminis, B6.1, read-out: observed % activity
  inhibition at 0.1 ppm: 0%
Gaeumannomyces graminis, B9.1, 1.001 0.0125 ppm, read-out: observed % activity
  inhibition at 0.0125 ppm: 0%
Gaeumannomyces graminis, B9.1, 1.001 0.0250 ppm, read-out: observed % activity
  inhibition at 0.025 ppm: 0%
Gaeumannomyces graminis, B9.1, 1.001 0.0500 ppm, read-out: observed % activity
  inhibition at 0.05 ppm: 0%
[3]
  inhibition at 0.1 ppm: 0%
  inhibition at 0.2 ppm: 0%
